In US20100311714A1, “1H-IMIDAZO[4,5-c]QUINOLINONE COMPOUNDS” (priority 2009, published 2010):

How the values were obtained:
[1] = tested on: PKB Ser473 phosphorylation in Rat1-myr-HA-p110 alpha cells; test: Reverse protein array, PKB Ser473 phosphorylation in Rat1-myr-HA-p110 alpha cells; format: cell-based; details: Rattus norvegicus, 0.5 h, 30 minutes compound incubation, read-out: p-PKB/IC50_alpha
[2] = tested on: PKB Ser473 phosphorylation in Rat1-myr-HA-p110 delta cells; test: Reverse protein array, PKB Ser473 phosphorylation in Rat1-myr-HA-p110 delta cells; format: cell-based; details: Rattus norvegicus, 0.5 h, 30 minutes compound incubation, read-out: p-PKB/IC50_delta

Row | SMILES | IC50 [1] | IC50 [2]
1 | CCOc1ccc(-c2ccc3ncc4c(c3c2)n(-c2ccc(NC(=O)COC)nc2C)c(=O)n4C)cn1 [Example 20.2, N-{5-[8-(6-Ethoxy-pyridin-3-yl)-3-methyl-2-oxo-2,3-dihydro-imidazo[4,5-c]quinolin-1-yl]-6-methyl-pyridin-2-yl}-2-methoxy-acetamide] | 0.05 µM | 0.326 µM
2 | CCOc1ccc(-c2ccc3ncc4c(c3c2)n(-c2ccc(C)nc2C)c(=O)n4C)cn1 [Example 14.2, 1-(2,6-Dimethyl-pyridin-3-yl)-8-(6-ethoxy-pyridin-3-yl)-3-methyl-1,3-dihydro-imidazo[4,5-c]quinolin-2-one] | 0.0204 µM | 0.0681 µM
3 | COc1ncccc1-n1c(=O)n(C)c2cnc3ccc(-c4cnc(N(C)C)nc4)cc3c21 [Example 1.9, 8-(2-Dimethylamino-pyrimidin-5-yl)-1-(2-methoxy-pyridin-3-yl)-3-methyl-1,3-dihydro-imidazo[4,5-c]quinolin-2-one] | 0.0576 µM | 0.0839 µM
4 | COCCOc1ccc(-n2c(=O)n(C)c3cnc4ccc(-c5cnc(COC)c(OC)c5)cc4c32)c(C)n1 [Example 22.3, 1-[6-(2-Methoxy-ethoxy)-2-methyl-pyridin-3-yl]-8-(5-methoxy-6-methoxymethyl-pyridin-3-yl)-3-methyl-1,3-dihydro-imidazo[4,5-c]quinolin-2-one] | 0.0242 µM | 0.21 µM
5 | CNc1ncc(-c2ccc3ncc4c(c3c2)n(-c2cccnc2C)c(=O)n4C)cn1 [Example 2.2, 3-Methyl-8-(2-methylamino-pyrimidin-5-yl)-1-(2-methyl-pyridin-3-yl)-1,3-dihydro-imidazo[4,5-c]quinolin-2-one] | 0.0159 µM | 0.0205 µM
6 | CCNc1cc(-c2ccc3ncc4c(c3c2)n(-c2cnc(F)cc2C)c(=O)n4C)cnc1C [Example 16.2, 8-(5-Ethylamino-6-methyl-pyridin-3-yl)-1-(6-fluoro-4-methyl-pyridin-3-yl)-3-methyl-1,3-dihydro-imidazo[4,5-c]quinolin-2-one] | 0.0218 µM | 0.0633 µM
7 | COc1ccc(-c2ccc3ncc4c(c3c2)n(-c2ncccc2C)c(=O)n4C)cn1 [Example 3.13, 8-(6-Methoxy-pyridin-3-yl)-3-methyl-1-(3-methyl-pyridin-2-yl)-1,3-dihydro-imidazo[4,5-c]quinolin-2-one] | 0.308 µM | –
8 | Cc1cc(F)ncc1-n1c(=O)n(C)c2cnc3ccc(-c4cnc5c(ccn5C)c4)cc3c21 [Example 16.5, 1-(6-Fluoro-4-methyl-pyridin-3-yl)-3-methyl-8-(1-methyl-1H-pyrrolo[2,3-b]pyridin-5-yl)-1,3-dihydro-imidazo[4,5-c]quinolin-2-one] | 0.0184 µM | 0.407 µM
9 | CNC(=O)c1cc(-c2ccc3ncc4c(c3c2)n(-c2ccc(F)nc2C)c(=O)n4C)cnc1N [Example 7.14, 2-Amino-5-[1-(6-fluoro-2-methyl-pyridin-3-yl)-3-methyl-2-oxo-2,3-dihydro-1H-imidazo[4,5-c]quinolin-8-yl]-N-methyl-nicotinamide] | 0.0152 µM | 0.14 µM
10 | COc1ncccc1-n1c(=O)n(C)c2cnc3ccc(-c4ccc(F)nc4)cc3c21 [Example 1.8, 8-(6-Fluoro-pyridin-3-yl)-1-(2-methoxy-pyridin-3-yl)-3-methyl-1,3-dihydro-imidazo[4,5-c]quinolin-2-one] | 0.0976 µM | 0.612 µM
11 | CNc1ncc(-c2ccc3ncc4c(c3c2)n(-c2ccc(C)nc2C)c(=O)n4C)cn1 [Example 14.4, 1-(2,6-Dimethyl-pyridin-3-yl)-3-methyl-8-(2-methylamino-pyrimidin-5-yl)-1,3-dihydro-imidazo[4,5-c]quinolin-2-one] | 0.0162 µM | 0.0326 µM
12 | Cc1cccnc1-n1c(=O)n(C)c2cnc3ccc(-c4cnc5ccccc5c4)cc3c21 [Example 3.8, 3-Methyl-1-(3-methyl-pyridin-2-yl)-8-quinolin-3-yl-1,3-dihydro-imidazo[4,5-c]quinolin-2-one] | 0.0549 µM | –
13 | Cc1nc(N2CC(F)(F)C2)ccc1-n1c(=O)n(C)c2cnc3ccc(-c4cncc(C(C)(C)O)c4)cc3c21 [Example 24.2, 1-[6-(3,3-Difluoro-azetidin-1-yl)-2-methyl-pyridin-3-yl]-8-[5-(1-hydroxy-1-methyl-ethyl)-pyridin-3-yl]-3-methyl-1,3-dihydro-imidazo[4,5-c]quinolin-2-one] | 0.0175 µM | 0.03 µM
14 | Cc1ccc(-n2c(=O)n(C)c3cnc4ccc(-c5cnc(N(C)C)nc5)cc4c32)c(C)n1 [Example 14.3, 8-(2-Dimethylamino-pyrimidin-5-yl)-1-(2,6-dimethyl-pyridin-3-yl)-3-methyl-1,3-dihydro-imidazo[4,5-c]quinolin-2-one] | 0.039 µM | 0.122 µM
15 | COc1ccc(-c2ccc3ncc4c(c3c2)n(-c2cccnc2)c(=O)n4C)cc1OC [Example 5.2, 8-(3,4-Dimethoxy-phenyl)-3-methyl-1-pyridin-3-yl-1,3-dihydro-imidazo[4,5-c]quinolin-2-one] | 0.0181 µM | 0.0743 µM
16 | CCOCc1cc(-c2ccc3ncc4c(c3c2)n(-c2ccc(F)nc2C)c(=O)n4C)cnc1N [Example 7.15, 8-(6-Amino-5-ethoxymethyl-pyridin-3-yl)-1-(6-fluoro-2-methyl-pyridin-3-yl)-3-methyl-1,3-dihydro-imidazo[4,5-c]quinolin-2-one] | 0.0201 µM | 0.172 µM
17 | CNc1cc(-c2ccc3ncc4c(c3c2)n(-c2ccc(F)nc2C)c(=O)n4C)cnc1CO [Example 7.11, 1-(6-Fluoro-2-methyl-pyridin-3-yl)-8-(6-hydroxymethyl-5-methylamino-pyridin-3-yl)-3-methyl-1,3-dihydro-imidazo[4,5-c]quinolin-2-one] | 0.0126 µM | 0.0171 µM

These reach a lower IC50 [1]. Values come first.

Row | IC50 [1] | IC50 [2] | SMILES
18 | 0.0069 µM | 0.0464 µM | Cc1nc(N(C)C)ccc1-n1c(=O)n(C)c2cnc3ccc(-c4cncc(N)c4)cc3c21 [Example 19.5, 8-(5-Amino-pyridin-3-yl)-1-(6-dimethylamino-2-methyl-pyridin-3-yl)-3-methyl-1,3-dihydro-imidazo[4,5-c]quinolin-2-one]
19 | 0.005 µM | 0.0533 µM | CNc1ncc(-c2ccc3ncc4c(c3c2)n(-c2ccc(N(C)CCOC)nc2C)c(=O)n4C)cn1 [Example 15.2, 1-{6-[(2-Methoxy-ethyl)-methyl-amino]-2-methyl-pyridin-3-yl}-3-methyl-8-(2-methylamino-pyrimidin-5-yl)-1,3-dihydro-imidazo[4,5-c]quinolin-2-one]
20 | 0.0115 µM | 0.0454 µM | Cc1ccc(-n2c(=O)n(C)c3cnc4ccc(-c5cnc6c(ccn6C)c5)cc4c32)c(C)n1 [Example 14.7, 1-(2,6-Dimethyl-pyridin-3-yl)-3-methyl-8-(1-methyl-1H-pyrrolo[2,3-b]pyridin-5-yl)-1,3-dihydro-imidazo[4,5-c]quinolin-2-one]
21 | 0.0066 µM | 0.218 µM | CNc1ncc(-c2ccc3ncc4c(c3c2)n(-c2ccc(NC(=O)COC)nc2C)c(=O)n4C)cn1 [Example 20.3, 2-Methoxy-N-{6-methyl-5-[3-methyl-8-(2-methylamino-pyrimidin-5-yl)-2-oxo-2,3-dihydro-imidazo[4,5-c]quinolin-1-yl]-pyridin-2-yl}-acetamide]
22 | < 0.00457 µM | < 0.00457 µM | CCNc1cc(-c2ccc3ncc4c(c3c2)n(-c2ccc(N(C)CC)nc2C)c(=O)n4C)cnc1C [Example 12.2, 8-(5-Ethylamino-6-methyl-pyridin-3-yl)-1-[6-(ethyl-methyl-amino)-2-methyl-pyridin-3-yl]-3-methyl-1,3-dihydro-imidazo[4,5-c]quinolin-2-one]
23 | 0.00727 µM | 0.0107 µM | COc1ccc(-n2c(=O)n(C)c3cnc4ccc(-c5cnc(N)c(C(F)(F)F)c5)cc4c32)c(OC)n1 [Example 8.1, 8-(6-Amino-5-trifluoromethyl-pyridin-3-yl)-1-(2,6-dimethoxy-pyridin-3-yl)-3-methyl-1,3-dihydro-imidazo[4,5-c]quinolin-2-one]
24 | < 0.00457 µM | 0.0379 µM | CNc1ncc(-c2ccc3ncc4c(c3c2)n(-c2ccc(F)nc2C)c(=O)n4C)cc1C(F)(F)F [Example 7.13, 1-(6-Fluoro-2-methyl-pyridin-3-yl)-3-methyl-8-(6-methylamino-5-trifluoromethyl-pyridin-3-yl)-1,3-dihydro-imidazo[4,5-c]quinolin-2-one]
25 | 0.0108 µM | 0.0388 µM | COCCN(C)c1ccc(-n2c(=O)n(C)c3cnc4ccc(-c5cnc(CO)c(OC)c5)cc4c32)c(C)n1 [Example 15.9, 8-(6-Hydroxymethyl-5-methoxy-pyridin-3-yl)-1-{6-[(2-methoxy-ethyl)-methyl-amino]-2-methyl-pyridin-3-yl}-3-methyl-1,3-dihydro-imidazo[4,5-c]quinolin-2-one]
26 | 0.0052 µM | < 0.00457 µM | CCNc1cc(-c2ccc3ncc4c(c3c2)n(-c2ccc(C)nc2C)c(=O)n4C)cnc1C [Example 14.6, 1-(2,6-Dimethyl-pyridin-3-yl)-8-(5-ethylamino-6-methyl-pyridin-3-yl)-3-methyl-1,3-dihydro-imidazo[4,5-c]quinolin-2-one]
27 | 0.0064 µM | 0.0839 µM | COCCOc1ccc(-n2c(=O)n(C)c3cnc4ccc(-c5cncc(N6CCC6)c5)cc4c32)c(C)n1 [Example 22.2, 8-(5-Azetidin-1-yl-pyridin-3-yl)-1-[6-(2-methoxy-ethoxy)-2-methyl-pyridin-3-yl]-3-methyl-1,3-dihydro-imidazo[4,5-c]quinolin-2-one]
28 | 0.0115 µM | 0.026 µM | CNc1ccc(-c2ccc3ncc4c(c3c2)n(-c2ccc(N3CCCC3)nc2C)c(=O)n4C)cn1 [Example 25.1, 3-Methyl-8-(6-methylamino-pyridin-3-yl)-1-(2-methyl-6-pyrrolidin-1-yl-pyridin-3-yl)-1,3-dihydro-imidazo[4,5-c]quinolin-2-one]
29 | 0.00544 µM | 0.072 µM | COc1ncccc1-n1c(=O)n(C)c2cnc3ccc(-c4cnc5c(ccn5C)c4)cc3c21 [Example 1.7, 1-(2-Methoxy-pyridin-3-yl)-3-methyl-8-(1-methyl-1H-pyrrolo[2,3-b]pyridin-5-yl)-1,3-dihydro-imidazo[4,5-c]quinolin-2-one]
